The record followed here is patent US20260027145A1 (priority 2022, published 2026).

Entries after “also recorded” stand apart in the source; their conditions may differ. Where two headings read alike, the source gives them in different places.

Series [1] relates to resting pan-T cells.
The test system of series [2] is IFITM1. It counts as cell-based, human.
Series [3] deals with resting pan-T cells. It counts as cell-based, human.
Series [4] deals with CD8+ cells. It is filed as cell-based, human.
The test system of series [5] is IFITM1. It counts as cell-based, human. The source holds these as a separate data set.
The test system of series [6] is IFITM1. It is filed as cell-based, human. The source holds these as a separate data set.
Series [7] deals with phosphorylated SAMHD1 (pSAMHD1). It is filed as cell-based, human. As to conditions: CD4+ and CD8+ T cells; for proportion of pSAMHD1 to total SAMHD1: IL-7 15 ng/mL, IL-15 15 ng/mL or both. The procedure:
The effect of IL-7 and IL-15 on phosphorylated SAMHD1 (pSAMHD1) and IFITM1 expression was assessed. CD4+ and CD8+ T cells were treated with either IL-2 (100 U/mL), IL-15 (15 ng/mL), IL-7 (15 ng/mL), or a composition comprising both IL-7 and IL-15. Cells were activated with anti-CD3/[…] antibody coated beads at a ratio of 3:1, and then cells were assessed for expression of IFITM1 or pSAMHD1. Aggregate densitometry across multiple donors are shown in FIG. 3A (CD8+) and FIG. 3B (CD4+), while representative western blots are also depicted in FIG. 3C (CD8+) and FIG. 3D (CD4+).

Series [8] has as its system IFITM1. It counts as cell-based, human. This is another data set of the same source.
The test system of series [9] is Nalm6 cells.
In series [10] the test system is pSAMHD1. It counts as cell-based, human.
For series [11], the system named is resting pan-T cells. It counts as cell-based, human. This is another data set of the same source.

On to `C[C@@H]1[C@H](O)[C@@H](C)/C=C/C=C/C=C/C=C/C=C/C=C/C=C/[C@H](O[C@@H]2O[C@H](C)[C@@H](O)[C@H](N)[C@@H]2O)C[C@@H]2O[C@](O)(C[C@@H](O)C[C@@H](O)[C@H](O)CC[C@@H](O)C[C@@H](O)CC(=O)O[C@H]1C)C[C@H](O)[C@H]2C(=O)O` [AmphoB, Amphotericin B], for which the “CD8 and CD4 cell number” value in series [1] is listed as “slightly reduced”. In addition, in series [2], the “restriction factor IFITM1 (western blot)” value is listed as “inactivation or loss”. Moreover, in series [3], the “concentrations at which gain in transduction efficiency is seen” value was no less than 0.1 µM and the “transduction efficiency (% GFP)” value was “increased transduction efficiency”.

`CO[C@H]1C[C@@H]2CC[C@@H](C)[C@@](O)(O2)C(=O)C(=O)N2CCCC[C@H]2C(=O)O[C@H]([C@H](C)C[C@@H]2CC[C@@H](OC(=O)C(C)(CO)CO)[C@H](OC)C2)CC(=O)[C@H](C)/C=C(\C)[C@@H](O)[C@@H](OC)C(=O)[C@H](C)C[C@H](C)/C=C/C=C/C=C/1C` [TEM, temsirolimus]: in series [1], the CD3 number entry is reported as “remained generally consistent”; the “CD8 and CD4 T-cells (cell counts)” value was “reduced”. The “transduction of the GFP transgene (% GFP)” value in series [3] was “enhance transduction”. Further, the “transduction efficiency (viral copy number per diploid genome)” value in [4] is “Increased transduction efficiency”. Moreover, in series [5], the IFITM1 protein expression result is reported as “pronounced loss of IFITM1 protein expression”.

With IL-15: recombinant cytokine, the IFITM1 expression entry in [6] is “similarly increased”. The “proportion of pSAMHD1 to total SAMHD1” value in series [7] is “increased”.

Consider `CO[C@H]1C[C@@H]2CC[C@@H](C)[C@@](O)(O2)C(=O)C(=O)N2CCCC[C@H]2C(=O)O[C@H]([C@H](C)C[C@@H]2CC[C@@H](O)[C@H](OC)C2)CC(=O)[C@H](C)/C=C(\C)[C@@H](O)[C@@H](OC)C(=O)[C@H](C)C[C@H](C)/C=C/C=C/C=C/1C` [rapamycin], for which, in series [8], the “downregulation of IFITM1 expression” value was 20-35% and the “reduction of IFITM1 expression” value was 5-40%.

In the case of IL-7: recombinant cytokine, the “cytotoxicity (Nalm6 loss related to untransduced controls)” value in [9] was “Increased cytotoxicity”. The pSAMHD1 levels result in [10] is on record as “increase in pSAMHD1 levels”. In addition, in series [3], the “transduction efficiency (% GFP) with cytokine pretreatment” value is on record as “positively impact transduction; also recorded: increased transduction efficiency”. For the same molecule, the “transduction efficiency (% GFP)” value in [11] was “did not lead to dose-dependent differences in transduction efficiency”. The IFITM1 expression result in series [6] is reported as “similarly increased”. Also, the “levels of pSAMHD1” value in [7] (IL-7 15 ng/mL pre-treatment) is given as “increased levels of pSAMHD1”. The “proportion of pSAMHD1 to total SAMHD1” value in series [7] is reported as “increased”.
